{"source": "patent US20230140200A1", "about": "“COMPOSITIONS AND METHODS FOR DETECTING CELLS UNDERGOING FERROPTOSIS USING AN ANTIBODY” (THE TRUSTEES OF COLUMBIA UNIVERSITY IN THE CITY OF NEW YORK, priority 2020, published 2023)", "key": {"HT-1080 cells [1]": {"system": "HT-1080 cells", "test": "Nuclear shrinkage by immunofluorescence (DAPI nuclei, CellProfiler)", "type": "cell-based, human", "conditions": "vs DMSO"}, "HT-1080 cells [2]": {"system": "HT-1080 cells", "test": "Immunofluorescence staining of treated cells, quantification of membrane intensity", "type": "cell-based, human", "conditions": "8 h"}, "TfR1 mRNA": {"system": "TfR1 mRNA", "test": "qPCR of TfR1 transcripts", "type": "cell-based, human", "conditions": "8 h, HT-1080 cells", "method": "HT-1080 cells were seeded in 6-well plates at a density of 400 k cells/well and incubated overnight. The following day, IKE or RSL3 were diluted into wells from stock solutions and treated for indicated time periods. Following treatment, cells were rinsed in cold PBS, trypsinized, and pelleted in Eppendorf tubes. RNA was isolated from cell pellets using Qiagen's RNeasy extraction kit, following manufacturer's instructions (Qiagen). RNA quantity and quality was evaluated by a nanodrop spectrophotometer (Thermo Fisher Scientific). cDNA was generated from 2 μg of total RNA, which was then diluted ten-fold and used as a template in qPCR reactions on a Viia7 Real-Time system. Gene specific primers were used as follows: TfR1 FW: 5′ […] 3′ (SEQ ID No: 18); TFR1 RV: 5′ […] 3′ (SEQ ID No: 19); GAPDH FW: 5′ […] 3′ (SEQ ID No: 20); GAPDH RV: 5′ […] 3′ (SEQ ID No: 21)."}, "HT-1080 cells [3]": {"system": "HT-1080 cells", "test": "Machine-learning training image set, TfR1 membrane fluorescence intensity", "type": "cell-based, human", "conditions": "fixed at 10-20% cell death", "method": "Immunofluorescence (IF). HT-1080 cells were treated with 1 μM RSL3, 20 μM IKE, or 1 μM STS on poly-lysine-coated coverslips (Sigma Aldrich P4832) in 24-well plates. […] The cells were fixed and permeabilized with 4% PFA in PBS with 0.1% Triton X-100 (PBT), with 200 μL per well. The plates were covered with foil, and the cells were incubated and shaken at room temperature for 15-20 min. The PFA was disposed of safely, and the cells were washed with PBT three times. The cells were blocked with 5% normal goat serum (NGS) (ThermoFisher 50197Z) in PBT for 1 h at room temperature. The cells were then incubated with mouse 3F3 anti-Ferroptotic Membrane Antibody (3F3-FMA) at 1:500 dilution in PBT with 1% bovine serum albumin (BSA) and 5% NGS at 4° C. overnight. The cells were washed with PBT for 5 min three times. The cells were then incubated with goat anti-mouse IgG (H+L) Highly Cross-Adsorbed Secondary Antibody, Alexa Fluor 594 (Thermo Fisher Scientific Cat #A-11032, RRID:AB_2534091) at 1:200 dilution and FITC-phalloidin at 1:1000 dilution in PBT with 1% BSA for 1 h at room temperature. […]\nAutomated image analysis. […] Nuclei were detected via the DAPI signal. […] In a next step, morphology/symmetry features, texture (SER features) and intensity properties of the DAPI, FITC and red channel were calculated for each cell region (nuclei, cytoplasm, and membrane). […]"}, "OCI-LY7 cells": {"system": "OCI-LY7 cells", "test": "C11-BODIPY lipid ROS flow cytometry", "type": "cell-based", "conditions": "5 μM PE, 19 h at 37° C.", "method": "6 L of media (1% Pen-Strep 10% FBS and 89% RPMI with L-glutamine) containing 400 million OCI-LY7 (DSMZ Cat #ACC-688, RRID:CVCL_1881) cells/L were treated with 5 μM PE (piperazine erastin). Cells were incubated for 19 h at 37° C., then production of lipid ROS was confirmed using BODIPY-C11 by flow cytometry. Ferroptotic cells were pelleted in centrifuge at 1000 rpm for 10 min at 25° C. Cells were resuspended in 1 mL lysis buffer with a pan-protease inhibitor, lysed using a dounce homogenizer. 70% cell lysis was confirmed by microscope. Pellet containing the nuclear fraction and unlysed cells was obtained by centrifuge at 700×g for 10 min at 4° C. Supernatant was spun at 700×g for 10 min at 4° C. Supernatant was then transferred to a new tube and placed in centrifuge at 10,000×g for 45 min at 4° C. Pellet consisting of total membrane was resuspended in upper phase solution. Lower phase was added and mixture was incubated on ice for 5 min. Mixture was spun at 1000×g for 5 min at 4° C. […]\nCells were resuspended in […] HBSS containing 2 μM C11-BODIPY (BODIPY 581/591 C11) (Thermo Fisher Scientific, D3861) and incubated at 37° C. for 15 min. […] Fluorescence intensity was measured on the FL1 channel with gating to record live cells only (gate constructed from DMSO treatment group). A minimum of 10,000 cells were analyzed per condition. […]"}, "HT-1080 cells [4]": {"system": "HT-1080 cells", "test": "High-content analysis of nucleus area", "type": "cell-based, human", "conditions": "RSL3 group vs DMSO group", "method": "For the screening with five technical replicates, HT-1080 cells were washed with PBS, trypsinized and resuspended in cell culture medium. The cell suspension (2,000 cells in 50 μl per well) was dispensed into collagen (Sigma-Aldrich, St. Louis, Mass., USA) pre-coated 384-well plates (PerkinElmer 384-well CellCarrierUltra™). 24 h after seeding, medium was exchanged to medium containing 0.3 μM RSL3 (1 mM stock solution) dissolved in 100% dimethyl sulfoxide (DMSO) or DMSO alone. 50 μl medium with 0.3 μM RSL3/DMSO was added per well. The cells were then incubated (37° C.; 5% CO2) for 2.5 h prior to fixation and antibody staining. […] Finally, plates were recorded using the automated Operetta® microscope with the 20× high NA objective for high-resolution images (PerkinElmer, USA). For quantification, three images of each condition were recorded using three channels (Hoechst, Alexa488, TRITC). […] Quantification on cell number, cytoplasmic intensity, nucleus intensity and spot number per cell was performed using the Columbus Software (PerkinElmer, USA).\nMultiparametric image analysis was performed using Columbus Software 2.8.0 (PerkinElmer). […] In a next step we have calculated the morphology and Alexa488 fluorescence intensity in each cell region (nucleus and cytoplasm). […] Each spot was detected as a small region within the corresponding image by having a higher intensity than its surrounding area. […]"}, "HT-1080 cells [5]": {"system": "HT-1080 cells", "test": "Cell death after RSL3 incubation", "type": "cell-based, human", "conditions": "1 μM, 4 h incubation"}}}
{"smiles": "O=S(=O)(NC1CCCCC1)c1ccc2c(c1)C(=NO)c1cc(S(=O)(=O)NC3CCCCC3)ccc1-2", "note": "[FIN56, ferroptosis inducer 56, reference compound]", "values": [{"measurement": "nuclei shrank (mean nucleus area)", "setting": "HT-1080 cells [1]; 10 μM, 8 h incubation", "value": 17, "unit": "%"}, {"measurement": "change of 3F3-FMA staining pattern caused by inducer", "setting": "HT-1080 cells [2]; 10 μM", "value": "same changes of 3F3-FMA pattern were observed"}]}
{"smiles": "CC1(CCO)CC2(CCC(C(C)(C)C)CC2)OO1", "note": "(stereo not drawn) [FINO2, ferroptosis inducer endoperoxide, reference compound]", "values": [{"measurement": "nuclei shrank (mean nucleus area)", "setting": "HT-1080 cells [1]; 15 μM, 8 h incubation", "value": 49, "unit": "%"}, {"measurement": "change of 3F3-FMA staining pattern caused by inducer", "setting": "HT-1080 cells [2]; 15 μM", "value": "same changes of 3F3-FMA pattern were observed"}]}
{"smiles": "CC(C)Oc1ccc(C(=O)Cn2ccnc2)cc1-n1c(CN2CCN(C(=O)COc3ccc(Cl)cc3)CC2)nc2ccccc2c1=O", "note": "[IKE, imidazole ketone erastin]", "values": [{"measurement": "nuclei shrank (mean nucleus area)", "setting": "HT-1080 cells [1]; 10 μM, 8 h incubation", "value": 12, "unit": "%"}, {"measurement": "change of 3F3-FMA staining pattern caused by inducer", "setting": "HT-1080 cells [2]; 10 μM", "value": "same changes of 3F3-FMA pattern were observed"}, {"measurement": "level of TfR1 mRNAs", "setting": "TfR1 mRNA; 10 μM", "value": "didn't increase"}, {"measurement": "TfR1 membrane fluorescence intensity after treatment", "setting": "HT-1080 cells [3]; 20 μM", "value": "significant increase"}]}
{"smiles": "CC(C)Oc1ccc(CN2CCNCC2)cc1-n1c(CN2CCN(C(=O)COc3ccc(Cl)cc3)CC2)nc2ccccc2c1=O", "note": "[PE, piperazine erastin]", "values": [{"measurement": "lipid peroxides (C11-BODIPY fluorescence)", "setting": "OCI-LY7 cells", "value": "increase in lipid peroxides"}]}
{"smiles": "COC(=O)c1ccc([C@@H]2c3[nH]c4ccccc4c3C[C@@H](C(=O)OC)N2C(=O)CCl)cc1", "note": "[RSL3, (1S, 3R)-RSL3]", "values": [{"measurement": "nuclei shrank (mean nucleus area)", "setting": "HT-1080 cells [1]; 1 μM, 4 h incubation", "value": 27, "unit": "%"}, {"measurement": "decrease of average nucleus area", "setting": "HT-1080 cells [4]", "value": 17, "unit": "%"}, {"measurement": "HT-1080 cells died", "setting": "HT-1080 cells [5]", "value": 30, "unit": "%"}, {"measurement": "level of TfR1 mRNAs", "setting": "TfR1 mRNA; 1 μM", "value": "didn't increase"}, {"measurement": "TfR1 membrane fluorescence intensity after treatment", "setting": "HT-1080 cells [3]; 1 μM", "value": "significant increase"}]}
{"smiles": "CC(C)(C)OO", "note": "[tBuOOH, reference compound]", "values": [{"measurement": "change of 3F3-FMA staining pattern caused by inducer", "setting": "HT-1080 cells [2]; 100 μM", "value": "same changes of 3F3-FMA pattern were observed"}]}
